Source: US20240013855A1, “METHOD OF SEARCHING FOR SPECIFIC-BINDING FUNCTIONAL SUBSTANCES, SPECIFIC-BINDING FUNCTIONAL SUBSTANCE SEARCH SYSTEM, SPECIFIC-BINDING FUNCTIONAL SUBSTANCE SEARCH METHOD, AND PROGRAM” (SHINSHU UNIVERSITY, priority 2020, published 2024)

Legend:
[1] = target: Kinase DYRK1A (Homo sapiens, UniProt Q13627); experiment: Kinase DYRK1A enzymatic activity (Kinase Glo, remaining ATP) with or without heating/quick cooling (temperature jump); format: biochemical; settings: for inhibitory effect on the complete protein that was not heated/cooled: no heating/cooling (conventional evaluation); for inhibitory effect specific to the folding intermediate undergoing heating/cooling: with versus without heating/cooling (temperature jump)
Description: Lastly, in the embodiment, the effect of the presence of the candidate functional substance in influencing the function of the protein is determined (step C). For example, what is determined is, such as, inhibitory effect when searching for an inhibitor, accelerative effect when searching for an accelerator, coagulative effect when searching for a coagulant, stabilizing effect when searching for a stabilizer, or activating effect when searching for an activator, as a functional substance. […] As an example, in this process a determination can be made by using the Promega Kinase Glo assay kit, etc., to quantify the amount of ATP remaining in the tube, and thereby measuring its enzymatic activity. It should be noted that the determination of inhibitory effect is not limited to one based on use of the aforementioned kit, etc.
• Kinase DYRK1A protein mass: 25 ng • DMSO concentration: 0.3% in 25 μL • ATP/substrate peptide (DYRKtide peptide: amino-acid sequence […]) concentration: 5 μM each • Volume at enzymatic reaction: 25 μL • Volume in thermal cycler (Biometra TAdvanced Model 96SG): 15 μL • Enzymatic reaction period: 2 hrs.
• 1. The DYRK1A protein, inhibitors (solvent DMSO alone was added in the case of “Inhibitor 0 μM”), buffer (final concentrations: 5 mM MOPS pH7.2, 2.5 mM beta-glycerol-phosphate, 5 mM MgCl2, 1 mM EGTA, 0.4 mM EDTA, 0.05 mM DTT) and ultrapure water were mixed in tubes placed in a white 96-well PCR plate. [Volume: 15 μL, DYRK1A protein mass: 25 ng, inhibitor concentration: 30 μM] • 2. The plate was set in a thermal cycler and heated for 20 seconds at each heating temperature, and then cooled for 10 seconds at 3° C. [Rate of heating/rate of cooling both 8° C./sec.] • 3. Upon completion of cooling, it was removed immediately and 10 μL of ATP/substrate peptide mixture solution was added. [Volume: 15 μL→25 μL, ATP/substrate peptide concentration 5 μM] • 4. It was set in the thermal cycler again to cause enzymatic reaction for 2 hours […] at 20° C. • 5. It was picked up from the thermal cycler and 25 μL of Kinase Glo reaction solution was added, and from the resulting luminescence value, the remaining amount of ATP was measured to evaluate the enzymatic activity. [Volume: 25 μL 50 μL]

[2] = target: kinase DYRK1B (Homo sapiens, UniProt Q9Y463); experiment: Kinase DYRK1B inhibitory activity with and without heating/cooling; format: biochemical; settings: for inhibitory activity without heating/cooling: complete protein not heated/cooled; for inhibitory effect specific to the folding intermediate undergoing heating/cooling: with versus without heating/cooling
Chain of kinase DYRK1B (Q9Y463 whole entry): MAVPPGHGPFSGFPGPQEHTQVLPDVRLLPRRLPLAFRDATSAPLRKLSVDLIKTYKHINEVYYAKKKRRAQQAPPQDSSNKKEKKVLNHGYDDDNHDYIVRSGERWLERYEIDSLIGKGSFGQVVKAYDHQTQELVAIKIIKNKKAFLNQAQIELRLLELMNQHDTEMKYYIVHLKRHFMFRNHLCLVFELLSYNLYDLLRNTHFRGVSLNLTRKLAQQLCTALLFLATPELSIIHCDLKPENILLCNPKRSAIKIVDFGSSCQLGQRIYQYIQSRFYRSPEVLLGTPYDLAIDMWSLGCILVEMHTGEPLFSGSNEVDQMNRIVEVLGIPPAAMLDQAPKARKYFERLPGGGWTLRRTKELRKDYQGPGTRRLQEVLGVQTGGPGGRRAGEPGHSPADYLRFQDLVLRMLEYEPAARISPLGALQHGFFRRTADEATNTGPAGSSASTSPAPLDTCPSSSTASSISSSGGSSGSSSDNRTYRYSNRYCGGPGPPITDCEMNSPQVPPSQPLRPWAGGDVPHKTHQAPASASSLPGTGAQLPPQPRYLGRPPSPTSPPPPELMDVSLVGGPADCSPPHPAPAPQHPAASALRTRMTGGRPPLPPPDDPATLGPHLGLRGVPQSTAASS
Description: Consequently, the setpoint heating temperature for the temperature jump test was set to 62.0° C. […] Consequently, the setpoint heating temperature for the temperature jump test was set to 52.0° C.

[3] = target: kinase SRC (Homo sapiens, UniProt P12931); experiment: Kinase SRC inhibitory activity with and without heating/cooling; format: biochemical; settings: for inhibitory activity on SRC compared with DYRK1A: temperature jump; for inhibition of kinase SRC: with and without heating/cooling, IC80 concentration for temperature-jump inhibition of DYRK1A
Chain of kinase SRC (P12931 whole entry): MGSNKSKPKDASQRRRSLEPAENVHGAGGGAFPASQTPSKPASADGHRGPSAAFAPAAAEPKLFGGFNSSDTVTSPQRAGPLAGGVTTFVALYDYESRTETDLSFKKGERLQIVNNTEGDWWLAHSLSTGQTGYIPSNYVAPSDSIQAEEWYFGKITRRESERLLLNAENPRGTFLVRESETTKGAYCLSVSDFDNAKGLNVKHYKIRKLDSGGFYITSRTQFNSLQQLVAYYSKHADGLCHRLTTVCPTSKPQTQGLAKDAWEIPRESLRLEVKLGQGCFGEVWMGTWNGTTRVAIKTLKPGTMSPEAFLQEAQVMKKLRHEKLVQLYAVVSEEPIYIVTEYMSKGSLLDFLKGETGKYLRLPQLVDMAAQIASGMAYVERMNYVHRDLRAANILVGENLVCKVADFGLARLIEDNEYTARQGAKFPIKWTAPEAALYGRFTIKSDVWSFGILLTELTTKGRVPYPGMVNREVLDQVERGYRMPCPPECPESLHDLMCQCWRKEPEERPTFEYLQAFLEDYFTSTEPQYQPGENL
Description: (§1) Here, inhibitory effects on other kinases were studied.
(§2) As a result, for the kinase DYRK1A, the upper-limit temperature of 67.0° C. and lower-limit temperature of 57.5° C. were calculated as temperature conditions based on the measured data, as shown in FIG. 16. Consequently, the setpoint heating temperature for the temperature jump test was set to 62.0° C. […] Consequently, the setpoint heating temperature for the temperature jump test was set to 53.7° C. Also, for the kinase SRC, the upper-limit temperature of 59.6° C. and lower-limit temperature of 51.4° C. were calculated as temperature conditions based on the measured data, as shown in FIG. 18. Consequently, the setpoint heating temperature for the temperature jump test was set to 55.5° C. Also, for the kinase ABL, the upper-limit temperature of 55.6° C. and lower-limit temperature of 47.3° C. were calculated as temperature conditions based on the measured data, as shown in FIG. 19. Consequently, the setpoint heating temperature for the temperature jump test was set to 52.0° C.

[4] = target: kinase ABL (Homo sapiens, UniProt P00519); experiment: Kinase ABL inhibitory activity with and without heating/cooling; format: biochemical
Chain of kinase ABL (P00519 whole entry): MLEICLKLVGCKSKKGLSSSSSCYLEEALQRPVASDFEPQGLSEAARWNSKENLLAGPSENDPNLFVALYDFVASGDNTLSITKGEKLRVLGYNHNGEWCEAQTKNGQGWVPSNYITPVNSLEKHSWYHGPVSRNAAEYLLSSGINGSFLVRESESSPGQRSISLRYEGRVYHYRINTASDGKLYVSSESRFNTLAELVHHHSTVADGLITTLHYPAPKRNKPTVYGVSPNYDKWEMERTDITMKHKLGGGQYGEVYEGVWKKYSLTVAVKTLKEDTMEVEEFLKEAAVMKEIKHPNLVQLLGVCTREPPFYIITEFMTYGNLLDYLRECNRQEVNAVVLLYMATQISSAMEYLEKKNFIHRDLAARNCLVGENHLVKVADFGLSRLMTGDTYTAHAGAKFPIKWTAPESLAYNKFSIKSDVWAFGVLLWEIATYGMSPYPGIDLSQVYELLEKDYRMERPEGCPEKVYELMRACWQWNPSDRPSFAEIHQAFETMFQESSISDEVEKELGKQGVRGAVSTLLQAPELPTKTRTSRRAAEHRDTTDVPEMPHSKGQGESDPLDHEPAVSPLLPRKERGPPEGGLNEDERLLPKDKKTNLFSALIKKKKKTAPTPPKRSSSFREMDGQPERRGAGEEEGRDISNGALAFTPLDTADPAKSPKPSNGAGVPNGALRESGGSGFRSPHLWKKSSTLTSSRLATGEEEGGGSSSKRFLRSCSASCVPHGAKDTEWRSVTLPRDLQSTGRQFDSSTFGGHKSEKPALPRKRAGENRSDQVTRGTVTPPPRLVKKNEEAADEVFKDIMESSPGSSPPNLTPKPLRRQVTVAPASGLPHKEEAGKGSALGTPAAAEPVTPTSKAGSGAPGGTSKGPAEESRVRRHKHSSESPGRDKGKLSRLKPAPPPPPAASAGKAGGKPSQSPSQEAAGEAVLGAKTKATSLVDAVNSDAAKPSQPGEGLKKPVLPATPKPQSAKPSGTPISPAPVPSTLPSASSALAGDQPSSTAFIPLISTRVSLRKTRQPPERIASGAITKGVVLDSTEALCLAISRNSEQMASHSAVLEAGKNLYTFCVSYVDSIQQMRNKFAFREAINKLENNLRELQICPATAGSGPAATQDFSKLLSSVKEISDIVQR
Description: as §1, §2

[5] = target: ABL in HEK293 cells (Homo sapiens, UniProt P00519); experiment: Western blotting detection of ABL in cultured cell line HEK293; settings: HEK293 cultured for 4 days in the presence of compound
Chain of ABL in HEK293 cells (P00519 whole entry): as above
Description: Additionally, a western blotting detection using the cultured cell line HEK293 was conducted. […] Using the SDS-PAGE and western blotting methods, ABL and GAPDH were detected using antibodies specific to the two.

[6] = target: T1, DYRK1A in HEK293 cells (Homo sapiens, UniProt Q13627); experiment: Western blotting detection of DYRK1A in cultured cell line HEK293; format: cell-based; settings: HEK293 cultured for 4 days in the presence of compound
T1 construct: endogenous in cells; host or cells: HEK293
Description: To be more specific, a study was conducted by western blotting using the cultured cell line HEK293.

[7] = target: T2, monoamine oxidase MAO-A (Homo sapiens, UniProt P21397); experiment: Small-scale screening on monoamine oxidase MAO-A with temperature jump (MAO-A-Glo Assay); format: biochemical; settings: temperature jump 69.2° C; plant-derived compound library (1 to 34)
T2 sequence (P21397 1-527): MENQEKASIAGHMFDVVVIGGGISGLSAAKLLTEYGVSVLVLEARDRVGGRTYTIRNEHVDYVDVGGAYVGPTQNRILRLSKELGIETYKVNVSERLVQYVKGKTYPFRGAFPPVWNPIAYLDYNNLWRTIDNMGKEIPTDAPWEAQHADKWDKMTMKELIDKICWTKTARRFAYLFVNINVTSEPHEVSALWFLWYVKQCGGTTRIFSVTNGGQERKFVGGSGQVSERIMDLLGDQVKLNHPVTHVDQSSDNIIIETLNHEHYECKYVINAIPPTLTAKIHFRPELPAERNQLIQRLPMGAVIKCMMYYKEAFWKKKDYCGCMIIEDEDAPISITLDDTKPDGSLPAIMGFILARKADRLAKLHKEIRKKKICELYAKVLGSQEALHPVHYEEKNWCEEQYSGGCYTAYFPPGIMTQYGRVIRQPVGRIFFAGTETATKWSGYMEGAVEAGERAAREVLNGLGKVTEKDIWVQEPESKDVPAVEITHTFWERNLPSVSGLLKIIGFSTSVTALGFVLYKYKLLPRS
Description: Also, the monoamine oxidase MAO-A was studied as a way to set the upper-limit temperatures and lower-limit temperatures in FIG. 11 to FIG. 13. FIG. 20 is a figure showing the study results on upper-limit temperature and lower-limit temperature for the monoamine oxidase MAO-A. It should be noted that the test was conducted according to the product manual for Promega's MAO-A-Glo™ Assay Systems. It should be noted that the relative enzymatic activity was calculated based on the enzymatic activity at 40° C. being 1.0.
As a result, for the […] MAO-A, the upper-limit temperature of 76.4° C. and lower-limit temperature of 62.0° C. were calculated as temperature conditions based on the measured data, as shown in FIG. 20. Consequently, the setpoint heating temperature for the temperature jump test was set to 69.2° C. FIG. 21 is a figure showing the small-scale inhibitor screening results with respect to the monoamine oxidase MAO-A.

| SMILES | inhibitory effect on the complete protein that was not heated/cooled [1] | inhibitory effect specific to the folding intermediate undergoing heating/cooling [1] | inhibitory activity without heating/cooling [2] | inhibitory effect specific to the folding intermediate undergoing heating/cooling [2] | inhibitory activity on SRC compared with DYRK1A [3] | inhibition of kinase SRC [3] | also measured |
| --- | --- | --- | --- | --- | --- | --- | --- |
| CCOc1cc(/C=C2\SC(=S)NC2=O)ccc1O [RD0392] | exhibited an inhibitory effect | did not exhibit a specific inhibitory effect | exhibited an inhibitory effect | did not exhibit a specific inhibitory effect | – | – | – |
| COc1ccc(/C=C2\SC(=S)NC2=O)cc1C#C[Si](C)(C)C [FINDY] | – | – | – | – | weaker than those on DYRK1A | inhibited the kinase SRC in a temperature jump-dependent manner | inhibitory activity on ABL compared with DYRK1A ([4]; temperature jump): stronger than that on DYRK1A; inhibition of kinase ABL ([4]; with and without heating/cooling): strongly inhibited the kinase ABL in a temperature jump-dependent manner; ABL band in western blotting (activity to decompose/remove ABL) [5]: became fainter |
| COc1ccc(/C=C2\SC(=S)NC2=O)cc1C#C[Si](C)(c1ccccc1)c1ccccc1 [compound 168] | – | – | – | – | weaker than those on DYRK1A | inhibited the kinase SRC in a temperature jump-dependent manner | – |
| O=C(O[C@H]1Cc2ccccc2C[C@H]1OC(=O)c1cc(O)c(O)c(O)c1)c1cc(O)c(O)c(O)c1 [compound No. 2] | – | exhibited a specific inhibitory effect only with the folding intermediate | – | – | – | – | DYRK1A band in western blotting (activity to decompose/remove DYRK1A) [6]: became fainter; temperature jump-dependent inhibitory activity on MAO-A [7]: temperature jump-dependent inhibitory activity was confirmed |
| COc1ccc2c(c1)[nH]c1c(C)nccc12 [Harmine] | exhibited an inhibitory effect | did not exhibit a specific inhibitory effect | exhibited an inhibitory effect | did not exhibit a specific inhibitory effect | – | – | – |
